Each compound was assayed against T1, Type-1 angiotensin II receptor (Homo sapiens) (UniProt P30556) (assay: (§1) Antagonist activity at angiotensin 2 type-1 receptor (unknown origin)).
T1 sequence (whole entry): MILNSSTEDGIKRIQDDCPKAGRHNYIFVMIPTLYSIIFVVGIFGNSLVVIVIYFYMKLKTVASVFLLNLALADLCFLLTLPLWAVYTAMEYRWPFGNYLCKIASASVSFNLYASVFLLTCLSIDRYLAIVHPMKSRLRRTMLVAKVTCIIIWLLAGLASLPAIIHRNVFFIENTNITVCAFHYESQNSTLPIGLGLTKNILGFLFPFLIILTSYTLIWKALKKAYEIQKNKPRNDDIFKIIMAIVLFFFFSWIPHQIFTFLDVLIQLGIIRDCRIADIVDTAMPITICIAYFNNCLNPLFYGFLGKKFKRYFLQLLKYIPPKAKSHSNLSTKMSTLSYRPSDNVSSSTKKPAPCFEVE

pIC50 | Compound
6.05 | CCCCc1ncc(/C=C2/C(=O)N(CCCC)C(=O)N2Cc2ccc(-c3ccccc3)cc2)n1Cc1ccc(C(=O)OC)cc1

These compounds were tested against T2, Type-1 angiotensin II receptor (Homo sapiens, UniProt P30556) (assay: as §1).
T2 sequence (P30556 whole entry): T1 sequence (whole entry)

Compound | IC50 [nM]
CCCCc1ncc(/C=C2/C(=O)N(CCCC)C(=O)N2Cc2ccc(C#N)cc2)n1Cc1ccc(C(=O)OC)cc1 | 11.1
CCCCc1ncc(/C=C2/C(=O)N(CCCC)C(=O)N2Cc2csc(C)n2)n1Cc1ccc(C2(C(=O)O)CCCC2)cc1 | 8
CCCCc1ncc(/C=C2/C(=O)N(CCCC)C(=O)N2CCc2csc(Br)c2)n1Cc1ccc(C(=O)OC)cc1 | 25.4
CCCCc1ncc(/C=C2/C(=O)N(CCCC)C(=O)N2Cc2ccc(OC)cc2)n1Cc1ccc(C(=O)OC)cc1 | 9.8
CCCCc1ncc(/C=C2/C(=O)N(CCCC(F)(F)F)C(=O)N2Cc2csc(C)n2)n1Cc1ccc(C(=O)OC)cc1 | 70
CCCCc1ncc(/C=C2/C(=O)N(CCCC)C(=O)N2Cc2c[nH]cn2)n1Cc1ccc(C(=O)OC)cc1 | 54.5
CCCCc1ncc(/C=C2/C(=O)N(CCCC)C(=O)N2Cc2ccc(C)cc2)n1Cc1ccc(C(=O)OC)cc1 | 34.6
CCCCc1ncc(/C=C2/C(=O)N(CCCC)C(=O)N2Cc2ccoc2)n1Cc1ccc(C(=O)OC)cc1 | 8.3
CCCCc1ncc(/C=C2/C(=O)N(CCCC)C(=O)N2C=C(C)C)n1Cc1ccc(C(=O)OC)cc1 | 11.1
CCCCc1ncc(/C=C2/C(=O)N(CCCC)C(=O)N2CCCC)n1Cc1ccc(S(=O)(=O)NC(F)(F)F)cc1 | 29.6
CCCCc1ncc(/C=C2/C(=O)N(CCCC)C(=O)N2Cc2cccc(C)c2)n1Cc1ccc(C(=O)OC)cc1 | 18.5
CCCCc1ncc(/C=C2/C(=O)N(C)C(=O)N2Cc2csc(C)n2)n1Cc1ccc(C(=O)OC)cc1 | 16.6
CCCCc1ncc(/C=C2/C(=O)N(CSCC)C(=O)N2Cc2csc(C)n2)n1Cc1ccc(C(=O)OC)cc1 | 9.6
CCCCc1ncc(/C=C2/C(=O)N(CCCO)C(=O)N2Cc2csc(C)n2)n1Cc1ccc(C(=O)OC)cc1 | 47.9
CCCCc1ncc(/C=C2/C(=O)N(CCCC)C(=O)N2Cc2ccc(Cl)cc2)n1Cc1ccc(C(=O)OC)cc1 | 17.6
CCCCc1ncc(/C=C2/C(=O)N(CCCC)C(=O)N2Cc2ccc(C(F)(F)F)cc2)n1Cc1ccc(C(=O)OC)cc1 | 159
CCCCc1ncc(/C=C2/C(=O)N(CCCC)C(=O)N2Cc2cccc(Cl)c2)n1Cc1ccc(C(=O)OC)cc1 | 117
CCCCc1ncc(/C=C2/C(=O)N(CCCC)C(=O)N2Cc2ccc(-c3ccccc3)cc2)n1Cc1ccc(C(=O)OC)cc1 | 884
CCCCc1ncc(/C=C2/C(=O)N(CCCC)C(=O)N2Cc2ccc3ccccc3c2)n1Cc1ccc(C(=O)OC)cc1 | 104
CCCCc1ncc(/C=C2/C(=O)N(CCC)C(=O)N2Cc2csc(C)n2)n1Cc1ccc(C(=O)OC)cc1 | 9
CCCCc1ncc(/C=C2/C(=O)N(CCCC)C(=O)N2Cc2c[nH]c(C)n2)n1Cc1ccc(C(=O)OC)cc1 | 245
CCCCc1ncc(/C=C2/C(=O)NC(=O)N2CCCC)n1Cc1ccc(-c2nn[nH]n2)cc1 | 7.1

Next, values leading:

IC50 [nM] | Compound
6.6 | CCCCc1ncc(/C=C2/C(=O)NC(=O)N2CCC(C)C)n1Cc1ccc(C(=O)O)cc1
3.4 | CCCCc1ncc(/C=C2\C(=O)NC(=O)N2Cc2ccccc2)n1Cc1ccc(C(=O)O)cc1
1.7 | CCCCc1ncc(/C=C2\C(=O)N(CCCC)C(=O)N2Cc2csc(C)n2)n1Cc1ccc(C(=O)O)cc1
2.3 | CCCCc1ncc(/C=C2/C(=O)NC(=O)N2Cc2cccs2)n1Cc1ccc(C(=O)O)cc1
2.6 | CCCCc1ncc(/C=C2\C(=O)NC(=O)N2Cc2cccs2)n1Cc1ccc(C(=O)O)cc1
4.8 | CCCCc1ncc(/C=C2/C(=O)N(CCCC)C(=O)N2Cc2ccsc2)n1Cc1ccc(C(=O)OC)cc1
0.5 | CCCCc1ncc(/C=C2\C(=O)N(CCCC)C(=O)N2Cc2csc(N)n2)n1Cc1ccc(C(=O)O)cc1
1.5 | CCCCc1ncc(/C=C2/C(=O)N(CCCC)C(=O)N2Cc2cc(C)cs2)n1Cc1ccc(C(=O)O)cc1
4.9 | CCCCc1ncc(/C=C2/C(=O)N(CCCC)C(=O)N2Cc2ccc(O)c(O)c2)n1Cc1ccc(C(=O)OC)cc1
6.1 | CCCCc1ncc(/C=C2/C(=O)N(CCCC)C(=O)N2c2ccccc2)n1Cc1ccc(C(=O)OC)cc1
3 | CCCCc1ncc(/C=C2/C(=O)NC(=O)N2Cc2ccc(Cl)cc2)n1Cc1ccc(C(=O)O)cc1
4.2 | CCCCc1ncc(/C=C2\C(=O)NC(=O)N2CCCC)n1Cc1ccc(-c2nn[nH]n2)cc1
0.6 | CCCCc1ncc(/C=C2/C(=O)N(CCCC)C(=O)N2Cc2csc(N)n2)n1Cc1ccc(C(=O)O)cc1
0.6 | CCCCc1ncc(/C=C2/C(=O)N(CCCC)C(=O)N2Cc2ccc(C)s2)n1Cc1ccc(C(=O)O)cc1
0.6 | CCCCc1ncc(/C=C2\C(=O)N(CCCC)C(=O)N2Cc2cccs2)n1Cc1ccc(C(=O)O)cc1
2.5 | CCCCc1ncc(/C=C2\C(=O)NC(=O)N2CCCC)n1Cc1ccc(C2(C(=O)OC)CCCC2)cc1
1.4 | CCCCc1ncc(/C=C2/C(=O)NC(=O)N2CCCC)n1Cc1ccc(-c2ccccc2-c2nn[nH]n2)cc1
7.1 | CCCCc1ncc(/C=C2/C(=O)NC(=O)N2Cc2cccs2)n1Cc1ccc(C(=O)OC)cc1
3 | CCCCc1ncc(/C=C2/C(=O)N(CCCC)C(=O)N2Cc2ccc(N)cc2)n1Cc1ccc(C(=O)OC)cc1
3.3 | CCCCc1ncc(/C=C2/C(=O)NC(=O)N2CCCC)n1Cc1ccc(S(=O)(=O)NC(F)(F)F)cc1
0.9 | CCCCc1ncc(/C=C2/C(=O)N(CCCC)C(=O)N2Cc2ccsc2)n1Cc1ccc(C(=O)O)cc1
1.9 | CCCCc1ncc(/C=C2/C(=O)N(CCCC)C(=O)N2Cc2csc(C)n2)n1Cc1ccc(C(=O)OC)cc1
3.5 | CCCCc1ncc(/C=C2/C(=O)NC(=O)N2CCCC)n1Cc1ccc(C(=O)OC)cc1
4.2 | CCCCc1ncc(/C=C2/C(=O)N(CCCC)C(=O)N2Cc2ccc(C(=O)OC)s2)n1Cc1ccc(C(=O)OC)cc1
0.7 | CCCCc1ncc(/C=C2/C(=O)N(CCCC)C(=O)N2Cc2cccs2)n1Cc1ccc(C(=O)O)cc1
4.9 | CCCCc1ncc(/C=C2\C(=O)NC(=O)N2CCC(C)C)n1Cc1ccc(C(=O)O)cc1
0.5 | CCCCc1ncc(/C=C2\C(=O)N(CCCC)C(=O)N2CCCC)n1Cc1ccc(C(=O)O)cc1
4 | CCCCc1ncc(/C=C2/C(=O)NC(=O)N2Cc2ccccc2)n1Cc1ccc(C(=O)O)cc1

— ChEMBL document CHEMBL3045634, “Quantitative structure activity relationship analysis of angiotensin II AT1 receptor antagonists” (Med Chem Res, 2010)
